{"source": "patent US8691864B2", "about": "“Agents useful for reducing amyloid precursor protein and treating dementia and methods of use thereof” (priority 2000, dated 2014)", "key": {"Aβ1-40": {"tested_on": "Aβ1-40", "experiment": "Aβ1-40 levels in cerebral cortex of transgenic mice, ELISA", "assay_type": "in vivo", "settings": "formic acid extraction, 3 weeks daily", "procedure": "Greater reductions could be achieved, but, as previously reported, doses of >5 mg/kg produce cholinergic side effects for the (−)-enantiomer but not for the (+)-enantiomer.\nSamples of cerebral cortex from the transgenic mice then were analyzed for β amyloid peptide (Aβ) levels. Specifically, Aβ1-40 and Aβ1-42 levels, following formic acid extraction, were determined by ELISA assay (Suzuki et al., 1994)."}, "[1]": {"experiment": "in vivo toxicity, i.p. administration to rodents", "procedure": "This persisted for an hour and is related to central cholinergic overdrive. […] Animals were incapacitated at 20 mg/kg (N=3 per dose group), and 2 were killed when moribund."}, "APP": {"tested_on": "APP", "experiment": "rate of APP synthesis in SH-SY5Y cells (35S labelling, immunoprecipitation)", "assay_type": "cell-based, human", "settings": "10 μM, 16 hours", "procedure": "8×10^6 SHSY-5Y cells were plated on 100 mm dishes with DMEM containing 10% FBS. After 36 hours, the culture medium was replaced with DMEM containing 0.5% FBS. The cells were incubated with low serum medium for 1 hour. Thereafter, the medium was replaced with fresh low serum medium with and without 10 μM of phenserine for 16 hours.\nAfter treatment with methionine and cystine free medium, 2 ml of ^35S-labeled DMEM ([…]) with and without phenserine (10 μM) were added and incubated for 10 minutes. Thereafter, the labeled medium was carefully removed and the cells were suspended in lysis buffer containing with protease inhibitors and frozen at −80° C. for use in the immunoprecipitation assay.\nAPP protein was immunoprecipitated from 300 μig of total protein in each sample using the polyclonal antibody O443, which recognizes a 20 amino acid sequence in the carboxy terminal of APP, and protein A/G resin overnight at 4° C. Immunoprecipitated APP was eluted from the protein AJG resin with 30 μl of elution buffer (10% beta-mercaptoethanol). The samples were loaded onto 10% trys-glycine 10 gels, and the proteins were separated at 150 V for 90 min. The gels were fixed and dried at 80° C. for 60 min. The dried gels were exposed to Phosphor Screen (PACKARD Instrument Company, Inc., Meriden, Conn.) overnight and the βAPP signals were quantitated on a phosphor imager. […]"}, "SK-N-SH cells": {"tested_on": "SK-N-SH cells", "experiment": "LDH assay / cell number and viability, SK-N-SH cells", "assay_type": "cell-based, human", "excerpt": "Measurement of released lactate dehydrogenase (LDH) in the conditioned medium was undertaken as a marker of cell viability and integrity, as described previously (Lahiri et al., 1997 and 1998).\nThis was not associated with cellular dysfunction, as determined by measurement of LDH levels versus untreated controls (FIG. 4C)."}}, "data": [{"smiles": "CN1CC[C@@]2(C)c3cc(OC(=O)Nc4ccccc4)ccc3N(C)[C@@H]12", "note": "[(−)-phenserine]", "values": [{"measurement": "reduction of Aβ1-40 levels", "setting": "Aβ1-40", "result": 68, "unit": "%"}, {"measurement": "clinical signs", "setting": "[1]; 5 mg/kg", "result": "a fine tremor is observed"}, {"measurement": "clinical signs", "setting": "[1]; 7.5 mg/kg", "result": "Tremor together with symptoms of peripheral cholinergic overdrive"}, {"measurement": "duration of tremor and peripheral cholinergic symptoms", "setting": "[1]; 7.5 mg/kg", "result": "~3", "unit": "h"}, {"measurement": "clinical signs", "setting": "[1]; 20 mg/kg", "result": "incapacitated"}, {"measurement": "reduction of βAPP synthesis", "setting": "APP", "result": 52, "unit": "%"}, {"measurement": "LDH levels in media", "setting": "SK-N-SH cells; SK-N-SH, 50 μM, up to 16 hours", "result": "no significant difference between treated and untreated levels"}, {"measurement": "toxicity as assessed by an LDH assay", "setting": "SK-N-SH cells; SK-N-SH, 0.5, 5 or 50 μM, 16 hours", "result": "no significant toxicity"}]}]}
